Ki data for three compounds are collected here from patent US5661167A, “Prolyl endopeptidase inhibitors” (Merrell Pharmaceuticals Inc., priority 1996, dated 1997).

This test addresses T1, Prolyl endopeptidase (Bos taurus, UniProt Q9XTA2).
T1 construct: Prolyl endopeptidase was partially purified from bovine brain; from tissue; host or cells: bovine brain
T1 sequence (Q9XTA2 1-710): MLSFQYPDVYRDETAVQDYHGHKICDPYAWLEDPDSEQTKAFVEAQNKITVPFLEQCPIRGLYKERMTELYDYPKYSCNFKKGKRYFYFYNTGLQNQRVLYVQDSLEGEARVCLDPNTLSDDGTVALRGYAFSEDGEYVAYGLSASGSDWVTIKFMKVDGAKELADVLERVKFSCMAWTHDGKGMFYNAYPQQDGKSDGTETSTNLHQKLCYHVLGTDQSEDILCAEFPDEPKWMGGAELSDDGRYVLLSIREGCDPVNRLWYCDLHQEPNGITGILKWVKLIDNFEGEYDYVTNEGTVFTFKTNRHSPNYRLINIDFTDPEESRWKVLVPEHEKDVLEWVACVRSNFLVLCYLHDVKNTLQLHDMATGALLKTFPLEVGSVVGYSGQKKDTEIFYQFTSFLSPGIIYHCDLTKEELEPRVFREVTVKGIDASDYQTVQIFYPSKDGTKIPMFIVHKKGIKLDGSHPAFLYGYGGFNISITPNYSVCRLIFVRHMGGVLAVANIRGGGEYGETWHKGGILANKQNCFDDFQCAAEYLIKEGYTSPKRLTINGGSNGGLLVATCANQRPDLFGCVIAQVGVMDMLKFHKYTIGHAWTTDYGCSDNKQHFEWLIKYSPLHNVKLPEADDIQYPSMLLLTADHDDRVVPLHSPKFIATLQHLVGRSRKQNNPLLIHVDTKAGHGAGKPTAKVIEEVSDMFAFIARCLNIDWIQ
The experiment in a line: Prolyl endopeptidase enzyme inhibition assay (CBz-Gly-Pro-p-nitroanilide substrate, absorbance at 410 nm). In kind it is biochemical. To be noted: prolyl endopeptidase partially purified from bovine brain, buffer A (50 mM HEPES pH 7.4, 1 mM EDTA, 1 mM DTT), 37° C., [S]=50 μM, KM 11 μM, read-out: ENZYME INHIBITION (enzyme inhibition constant, Ki). How it is done: Prolyl endopeptidase was partially purified from bovine brain essentially as described by Yoshimoto et al. (Biochem., 94, 1179 (1983)) except that 50 mM HEPES, pH 7.4, was used instead of Tris buffer. This enzyme preparation is suitable for routine inhibition measurements; however, the enzyme may be further purified as described below. The state of purity of the enzyme is not expected to effect the measured Ki. The pellet from the 50%-80% ammonium sulfate cut is redissolved in the homogenization buffer and desalted by passage through a Pharmacia Mono Q column (0.5×5 cm) at 1 ml/min and the column is washed with 5 ml of buffer A to buffer B (total 20 ml; buffer A=50 mM HEPES, pH 7.4, 1 mM EDTA and 1 mM DTT; buffer B=buffer A+0.5M NaCl). Enzyme activity elutes at about [NaCl]=0.25M.
The enzyme is assayed in buffer A (3.0 ml) at 37° C. containing 20 μM substrate (CBz-Gly-Pro-p-nitroanilide). The increase in absorbance at 410 nm is monitored (410 nm =8.4 mM^-1 cm^-1). Inhibitor stock solutions are made in DMSO. To characterize reversible competitive inhibitors, the initial rates in the presence of three inhibitor concentrations are measured using [S]=50 μM (KM for the substrate is 11 μM). If slow binding is observed, the final equilibrium rates are used.
The Ki for a competitive inhibitor is calculated using known formulas: vo /vi =(1+[I]/Ki, app) and Ki =Ki, app/(1+[S]/KM), where vo is the initial rate in the absence of inhibitor, vi is the initial rate in the presence of inhibitor at the concentration [I], and [S] is the substrate concentration. If "slow binding" is observed (i.e. if the approach to the binding equilibrium is slow), the final steady-state rate rather than the initial rate is taken as vi.
Enzyme inhibition constants were found using the described methods for various compounds of formula 1.
Consider `O=C(OCc1ccccc1)N1CSCC1C(=O)N1CCCC1C(=O)C(F)(F)C(F)(F)F` (stereo not drawn) [EXAMPLE II, 4-[[2-(2,2,3,3,3-pentafluoro-1-oxopropyl)-1-pyrrolidinyl]carbonyl]-3-thiazolidinecarboxylic acid, phenylmethyl ester], for which the Ki (in general, a measure of affinity in units of concentration, obtained from inhibition or displacement) was found to be 1 nM.

Regarding `O=C(OCc1ccccc1)N1CCCC1C(=O)N1CCCC1C(=O)C(F)(F)C(F)(F)F` (stereo not drawn) [EXAMPLE I, 2-[[2-(2,2,3,3,3-pentafluoro-1-oxopropyl)-1-pyrrolidinyl]carbonyl]-1-pyrrolidinecarboxylic acid, phenylmethyl ester], the Ki came out at 1.4 nM.

As to `CC(C)(C)OC(=O)N1CSCC1C(=O)N1CSCC1C(=O)C(F)(F)C(F)(F)F` (stereo not drawn) [EXAMPLE IV, 4-[[4-(2,2,3,3,3-pentafluoro-1-oxopropyl)-3-thiazolidinyl]carbonyl]-3-thiazolidinecarboxylic acid, 1,1-dimethylethyl ester], the Ki is 1 nM.
